Measured values published in PubChem BioAssay (NCI).
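Interpolation was linear, between the two tested concentrations surrounding the appropriate level; five concentrations were tested over 48 hours in 96-well plates. TGI denotes the concentration required for complete inhibition of growth.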

Key:
Test in all cases: NCI anticancer screen, dose series, 48 h
UACC-62 melanoma = system: UACC-62 melanoma
UO-31 renal = system: UO-31 renal
SNB-75 CNS = system: SNB-75 CNS
UACC-257 melanoma = system: UACC-257 melanoma
SR leukemia = system: SR leukemia
T-47D breast = system: T-47D breast
HCT-15 colon = system: HCT-15 colon
SK-MEL-2 melanoma = system: SK-MEL-2 melanoma
SF-539 CNS = system: SF-539 CNS
MOLT-4 leukemia = system: MOLT-4 leukemia
HT29 colon = system: HT29 colon
K-562 leukemia = system: K-562 leukemia
IGROV1 ovarian = system: IGROV1 ovarian
SF-295 CNS = system: SF-295 CNS
HOP-62 NSCLC = system: HOP-62 NSCLC
OVCAR-3 ovarian = system: OVCAR-3 ovarian
A498 renal = system: A498 renal

| Compound | TGI (UACC-62 melanoma) [µM] | TGI (UO-31 renal) [µM] | TGI (SNB-75 CNS) [µM] | TGI (UACC-257 melanoma) [µM] | TGI (SR leukemia) [µM] | TGI (T-47D breast) [µM] | TGI (HCT-15 colon) [µM] | TGI (SK-MEL-2 melanoma) [µM] | TGI (SF-539 CNS) [µM] | TGI (MOLT-4 leukemia) [µM] | TGI (HT29 colon) [µM] | TGI (K-562 leukemia) [µM] | TGI (IGROV1 ovarian) [µM] | TGI (SF-295 CNS) [µM] | TGI (HOP-62 NSCLC) [µM] | TGI (OVCAR-3 ovarian) [µM] | TGI (A498 renal) [µM] |
| --- | --- | --- | --- | --- | --- | --- | --- | --- | --- | --- | --- | --- | --- | --- | --- | --- | --- |
| Cc1cc(N(C)C)ccc1N=Nc1ccc2ncccc2c1 | > 100 | > 100 | > 100 | > 100 | > 100 | > 100 | > 100 | > 100 | > 100 | > 100 | > 100 | > 100 | > 100 | > 100 |  |  |  |
| COc1ccccc1NC(=S)NNC(=O)c1cc(-c2ccccc2)nc2ccccc12 | 23.2 | 24.6 | 85 | 57.8 | 4.53 | 63 | 20.2 | 31.2 | 28.1 | 26.5 | 71.3 | > 100 | 68.5 | 18 | 32 | 18.2 |  |
| Cc1nn(C(=O)c2ccc(Cl)cc2)c2c1C(c1ccccc1)SC(N)=N2 (centres undefined) | > 10 |  | > 10 | > 10 | > 10 | > 10 | > 10 | > 10 | > 10 | > 10 | > 10 | > 10 | > 10 | > 10 | > 10 | > 10 |  |
| CC(C)C1=CC23CCC4C(C)(C(=O)O)CCCC4(C)C2CC1C1C(=O)N(c2ccc(N4C(=O)C5C6CC7C8(C)CCCC(C)(C(=O)O)C8CCC7(C=C6C(C)C)C5C4=O)cc2)C(=O)C13 (centres undefined) |  | 34 |  |  | 15.9 | 26.8 | 27.2 | 26.7 | 22.4 | 22 | 5.22 | > 100 |  |  | 19.3 | 18.6 | 24.8 |
| O=C(O)[C@@]1(Cc2ccc(O)cc2)C[C@@H]2Cc3ccccc3N2N1 | > 100 | > 100 |  | > 100 | > 100 | > 100 | > 100 | > 100 | > 100 | > 100 | > 100 |  | > 100 | > 100 | > 100 | > 100 | > 100 |
| Cc1ccc([N+](=O)[O-])cc1S(=O)(=O)Nc1ccc(C(=O)/C=C/c2ccccc2)cc1 | 28.1 | 40.7 | 32.3 | 34.6 | 54.7 | 44.6 | 48.7 | 38.2 | > 100 | 23 | 57.6 | 29.7 | 39.6 | 44.1 | 34.5 | 30.7 |  |
| CCN(CC)CCOc1ccc(N2Cc3cc(OC)c(OC)cc3C2=O)cc1 | > 100 |  |  | > 100 | > 100 | > 100 | > 100 | > 100 | > 100 | > 100 | > 100 | > 100 | > 100 | > 100 | > 100 | > 100 | > 100 |
| Cn1c(=O)oc2cc(C(=O)CN3CCN(Cc4ccc5c(c4)OCO5)CC3)c(Cl)cc21 | > 100 | > 100 | > 100 |  | > 100 | > 100 | > 100 | > 100 | > 100 | > 100 |  | > 100 | > 100 | > 100 | > 100 |  |  |
| CC1(C)CC(=O)c2c(nc3c(ccc4ccccc43)c2-c2ccc(NC(=O)CCCCCCCCC(=O)Nc3ccc(-c4c5c(nc6c4ccc4ccccc46)CC(C)(C)CC5=O)cc3)cc2)C1 |  | > 100 | > 100 | > 100 | > 100 | > 100 |  | > 100 | > 100 | > 100 | > 100 | > 100 | > 100 | > 100 | > 100 | > 100 |  |
| COc1ccc(/C=C2\N=C(N3CCOCC3)NC2=O)cc1 | > 100 | > 100 | > 100 | > 100 | > 100 | > 100 | > 100 | > 100 | > 100 | > 100 | > 100 |  | > 100 | > 100 | > 100 | > 100 |  |
| CN1CCN(Cn2nc(-c3ccccc3)n(/N=C/c3ccc(-c4ccc(Cl)cc4Cl)o3)c2=S)CC1 |  | 29 |  | 47.5 | 5.04 | 45.1 | 21.2 | 44.1 | 41 | 5.15 | 36.3 | 24.7 | 31.8 | 29.9 | 30.5 | 28.5 | 58.1 |
| CNC(=O)Nn1c(SC)nc2ccccc21 | > 100 | > 100 |  | > 100 | > 100 | > 100 | > 100 | > 100 |  | > 100 | > 100 | > 100 | > 100 | > 100 | > 100 |  | > 100 |
